# Results from publication PMC9576955, “Daidzein is the in vivo active compound of Puerariae Lobatae Radix water extract for muscarinic receptor-3 inhibition against overactive bladder” (Frontiers in Pharmacology, 2022).
# Like-named read-outs stand apart in the source and are kept apart here.
# What was measured:
# [1] = target: T1, M3 receptor (carbachol-induced detrusor contraction) (Rattus norvegicus, UniProt P08483); test: Carbachol-induced bladder strip (detrusor) contraction, ex vivo organ bath; assay type: cell-based, spontaneously hypertensive rats (SHRs); details: for remaining activity at 100 µg/mL: 100 μg/ml; for inhibition at 100 µg/mL: read-out: inhibition rate at 100 μg/ml; for IC10 value / IC50: carbachol (10 μM)-induced detrusor contraction, Mean ± SEM, n = 3
# T1 construct: the whole bladder was immediately isolated to prepare detrusor strips in Krebs’ solution; from tissue; host or cells: bladder detrusor strips / bladder sections of SHR
# T1 sequence (P08483 whole entry): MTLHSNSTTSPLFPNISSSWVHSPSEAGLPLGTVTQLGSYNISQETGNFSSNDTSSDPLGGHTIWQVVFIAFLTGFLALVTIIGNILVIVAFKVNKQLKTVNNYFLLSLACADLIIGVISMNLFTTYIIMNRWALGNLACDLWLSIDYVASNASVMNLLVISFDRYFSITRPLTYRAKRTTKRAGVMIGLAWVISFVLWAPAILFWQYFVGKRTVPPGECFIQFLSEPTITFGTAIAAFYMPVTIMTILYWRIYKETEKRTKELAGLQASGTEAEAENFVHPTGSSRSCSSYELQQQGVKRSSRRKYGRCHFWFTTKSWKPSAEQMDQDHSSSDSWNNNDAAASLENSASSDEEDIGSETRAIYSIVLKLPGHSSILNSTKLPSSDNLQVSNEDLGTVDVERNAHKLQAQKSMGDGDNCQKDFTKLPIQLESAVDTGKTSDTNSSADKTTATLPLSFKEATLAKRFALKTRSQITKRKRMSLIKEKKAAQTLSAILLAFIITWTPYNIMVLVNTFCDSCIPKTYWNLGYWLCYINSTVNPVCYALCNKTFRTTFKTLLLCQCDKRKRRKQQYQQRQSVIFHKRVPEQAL
# Description: SHRs were sacrificed with carbon dioxide, and the whole bladder was immediately isolated to prepare detrusor strips in Krebs’ solution. Then, the strips were placed in a PanLab organ bath (Harvard Apparatus, Holliston, Massachusetts, United States) full of bubbling Krebs’ solution at 37°C. After stimulation with high-potassium solution, the strips were washed with Krebs’ solution three times. When the strips were incubated in Krebs’ solution until the tension was set at about 1.5 g, 0.1% DMSO was added for a 10-min incubation as a control, and then the muscle strip was stimulated to shrink by adding muscarinic agonist carbachol (10 μM), which is used for determinization of M3 receptor function in the bladder strip ([Liang and Leung, 2012]). Between two stimulations, the strips were washed out and balanced for 15 min. The contraction force of the bladder strip was recorded. After the experiment, detrusor strips were collected, dried, and weighed for data normalization. Data were recorded and analyzed using LabChart software (version 8.0).
# Detrusor strips were isolated from SHRs and placed in the organ bath as mentioned previously, and then inhibitory activities of different fractions at 100 μg/ml were tested under carbachol (10 μM)-stimulated detrusor contraction.
# [2] = Urine metabolites after oral Gegen water extract, quantified by UPLC-MS/MS; assay type: in vivo, spontaneously hypertensive rats (SHRs); details: spontaneously hypertensive rat (SHR), 3-week treatment, Mean ± SEM; for concentration at 2 h: 2 h after last dose of Gegen water extract 300 mg/kg p.o., n = 8, read-out: Content in urine, 2 h; for concentration at 4 h: 4 h after last dose of Gegen water extract 300 mg/kg p.o., n = 8, read-out: Content in urine, 4 h; for concentration at 6 h: 6 h after last dose of Gegen water extract 300 mg/kg p.o., n = 8, read-out: Content in urine, 6 h; for concentration at 8 h: 8 h after last dose of Gegen water extract 300 mg/kg p.o., n = 8, read-out: Content in urine, 8 h
# Description: Urine samples were collected into ice-cold 15-ml Falcon tubes every 2 h and up to a total of 8 h, and the tubes were cooled by ice to prevent bacteria proliferation and water evaporation during collection. […] The gradient profile was set as follows: 10-40% B from 0 to 11 min; and 40-80% B from 11 to 15 min. The parameters for mass spectrometry were as follows: capillary, 2.5 kV for negative mode; sampling cone, 34 V; source offset, 80 V; cone gas flow, 150 L/h; desolvation gas flow, 650 L/h; and desolvation temperature, 350°C. Samples were kept at 4°C in the sample manager, and the column was maintained at 40°C. […] The precision and accuracy of the quantitation were satisfied according to FDA Bioanalytical Method Validation Guidance for Industry. Total ion chromatograms including retention times and MRM masses are shown in Supplementary Figure S2.
# [3] = target: BSA (Bos taurus, UniProt P02769); test: Thermal shift control in PBS containing BSA and glycerin; assay type: binding; details: 100 μg/ml; no M3 receptor protein; read-out: ΔTm in PBS solution containing BSA and glycerin
# BSA, sequence (P02769 25-607): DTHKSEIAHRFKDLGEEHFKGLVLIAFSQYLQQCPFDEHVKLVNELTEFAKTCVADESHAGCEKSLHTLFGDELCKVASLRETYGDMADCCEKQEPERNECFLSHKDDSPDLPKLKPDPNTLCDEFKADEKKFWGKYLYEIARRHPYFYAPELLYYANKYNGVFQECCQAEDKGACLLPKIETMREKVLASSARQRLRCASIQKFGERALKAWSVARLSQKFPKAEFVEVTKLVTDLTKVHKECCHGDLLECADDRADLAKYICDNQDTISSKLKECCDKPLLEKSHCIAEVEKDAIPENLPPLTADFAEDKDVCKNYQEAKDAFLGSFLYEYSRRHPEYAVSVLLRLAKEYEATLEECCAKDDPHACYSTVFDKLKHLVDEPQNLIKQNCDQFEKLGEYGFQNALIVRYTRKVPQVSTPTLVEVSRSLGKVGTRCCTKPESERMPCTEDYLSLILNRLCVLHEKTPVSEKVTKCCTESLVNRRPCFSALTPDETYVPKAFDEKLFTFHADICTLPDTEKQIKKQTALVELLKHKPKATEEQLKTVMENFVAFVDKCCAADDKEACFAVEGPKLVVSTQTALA
# [4] = cited from earlier work
# [5] = target: T1, M3 receptor (carbachol-induced detrusor contraction); test: Carbachol-induced bladder strip (detrusor) contraction, ex vivo organ bath; assay type: cell-based, spontaneously hypertensive rats (SHRs); details: read-out: inhibition at 12.5 μg/ml
# [6] = target: T2, recombinant human M3 receptor (Homo sapiens, UniProt P20309); test: Thermal shift assay with recombinant human M3 receptor protein; assay type: binding; details: for binding to the human M3 receptor protein (verdict in words): thermal shift; for Tm value of the human M3 receptor protein: compound at 100 μg/ml, control (1% DMSO) 64.17 ± 0.37°C, n = 3
# T2 construct: Full-length recombinant human M3 muscarinic acetylcholine receptor membrane preparation was provided by Millipore Co; purchased Millipore Co. (Merck KGaA, Darmstadt, Germany)
# T2 sequence (P20309 whole entry): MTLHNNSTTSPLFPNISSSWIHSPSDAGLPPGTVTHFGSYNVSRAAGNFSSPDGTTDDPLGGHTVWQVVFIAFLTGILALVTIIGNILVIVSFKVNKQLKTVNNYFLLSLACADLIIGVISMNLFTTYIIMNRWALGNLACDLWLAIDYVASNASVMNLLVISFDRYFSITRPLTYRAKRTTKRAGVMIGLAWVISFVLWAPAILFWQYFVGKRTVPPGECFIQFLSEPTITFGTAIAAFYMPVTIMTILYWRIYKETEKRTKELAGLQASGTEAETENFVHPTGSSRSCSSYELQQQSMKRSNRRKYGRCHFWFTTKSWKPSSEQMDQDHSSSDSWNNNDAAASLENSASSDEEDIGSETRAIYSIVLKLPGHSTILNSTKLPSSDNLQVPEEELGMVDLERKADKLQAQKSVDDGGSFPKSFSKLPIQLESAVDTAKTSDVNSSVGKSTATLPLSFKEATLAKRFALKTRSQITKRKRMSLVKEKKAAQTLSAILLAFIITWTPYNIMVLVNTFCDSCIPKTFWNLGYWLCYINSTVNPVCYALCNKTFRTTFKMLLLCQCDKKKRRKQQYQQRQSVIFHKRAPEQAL
# Description: A thermal shift assay was performed to measure the binding of ligands to a recombinant human M3 receptor as modified from the previous study ([Huynh and Partch, 2015]). Briefly, after optimization of protein and dye concentrations, the M3 receptor protein (0.025 mg/ml) was incubated with different concentrations of tested compounds (0–100 μg/ml in 1% DMSO) in an 18 μl volume of ice-cold PBS for 2 h. Then, SYPRO Orange protein stain (2 μl; 8x as the final concentration diluted from original 5000x with PBS) was added, and the melt curve was detected using the Applied Biosystems QuantStudio5 real-time PCR system under the following conditions: ramp speed, standard; excitation wavelength at 470 nm (Reporter: FAM), and emission wavelength at 586 nm (Quencher: TAMRA) with no passive reference; an initial 2-min hold at 25°C (ramp rate, 1.6°C/s), ramping up in increments of 0.05°C/s to a final temperature of 99°C. Melt temperatures (Tm) were calculated using Protein Thermal Shift software v.1.4 (Applied Biosystems, Thermo, United States). The change in melt temperature (ΔTm) was equal to the Tm of control (1% DMSO) subtracted from the Tm of the tested compound. ΔTm higher than 2°C was considered a positive interaction between the ligand and receptor protein ([Huynh and Partch, 2015]).
# [7] = pure compounds at 100 μg/ml, carbachol 10 μM
structure (smiles),measurement,setting,value
"O=c1c(-c2ccc(O)c(O)c2)coc2c([C@@H]3O[C@H](CO)[C@@H](O)[C@H](O)[C@H]3O)c(O)ccc12 [3′-Hydroxypuerarin, 3′-hydroxypuerarin]",remaining activity at 100 µg/mL,[1]; carbachol 10 μM,82.3 ± 1.8%
same,inhibition at 100 µg/mL,[1]; [7],17.8 ± 1.75%
"COc1ccc(-c2coc3cc(O)cc(O)c3c2=O)cc1 [Biochanin A, Biochanin A (genistein 4′-methyl ether)]",IC10 value,[1],34.94 ± 6.75 µg/mL
same,IC50,[1],201 µM
same,concentration at 2 h,"[2]; urine, oral",26 ± 7 ng/mL
same,concentration at 4 h,"[2]; urine, oral",85 ± 57 ng/mL
same,concentration at 6 h,"[2]; urine, oral",30 ± 14 ng/mL
same,concentration at 8 h,"[2]; urine, oral",28 ± 5 ng/mL
"O=c1c(-c2ccc(O)cc2)coc2cc(O)ccc12 [Daidzein, daidzein]",ΔTm at 100 µg/mL,[3],~0.58 °C
same,plasma AUC,"[4]; rat, in vivo, po",4·4 μg·h/mL
same,inhibition at 12.5 µg/mL,[5],15%
same,IC10 value,[1],8.15 ± 1.85 µg/mL
same,IC50,[1],158 µM
same,ΔTm at 100 µg/mL,"[6]; 100 μg/ml, against 1% DMSO, ΔTm higher than 2°C = positive interaction",2.12 °C
same,binding to the human M3 receptor protein (verdict in words),[6]; 100 μg/ml,positively bound
same,EC50,"[6]; 3.125–100 μg/ml, at 65.3°C, read-out: EC50 of concentration-dependent increase of Tm (converted)",62.1 µM
same,Tm value of the human M3 receptor protein,[6],66.29 ± 0.38 °C
same,concentration at 2 h,"[2]; urine, oral",4400 ± 1000 ng/mL
same,concentration at 4 h,"[2]; urine, oral",15900 ± 9300 ng/mL
same,concentration at 6 h,"[2]; urine, oral",8130 ± 2660 ng/mL
same,concentration at 8 h,"[2]; urine, oral",14400 ± 5140 ng/mL
"O=c1c(-c2ccc(O)cc2)coc2cc(O)cc(O)c12 [Genistein, Genistein (5-hydroxyl daidzein)]",concentration at 2 h,[2]; in vivo,517 ± 138 ng/mL
same,concentration at 4 h,[2]; in vivo,1410 ± 1000 ng/mL
same,concentration at 6 h,[2]; in vivo,327 ± 98 ng/mL
same,concentration at 8 h,[2]; in vivo,342 ± 35 ng/mL
"O=c1c(-c2ccc(O)cc2)coc2cc(O[C@@H]3O[C@H](CO)[C@@H](O)[C@H](O)[C@H]3O)cc(O)c12 [Genistin, genistin (genistein-7-O-glucoside)]",IC50,[1],> 231 µM
"O=c1c(-c2ccc(O)cc2)coc2c([C@@H]3O[C@H](CO[C@@H]4OC[C@](O)(CO)[C@H]4O)[C@@H](O)[C@H](O)[C@H]3O)c(O)ccc12 [Puerarin apioside, puerarin apioside]",remaining activity at 100 µg/mL,[1]; carbachol 10 μM,89.3 ± 9.2%
same,inhibition at 100 µg/mL,[1]; [7],10.7 ± 9.24%
"O=c1c(-c2ccc(O)cc2)coc2c([C@@H]3O[C@H](CO)[C@@H](O)[C@H](O)[C@H]3O)c(O)ccc12 [Puerarin, puerarin (daidzein-8-C-glucoside)]",plasma AUC,"[4]; after oral administration of Gegen water extract, ref Wei et al., 2020",15.1 µg·h/mL
same,IC10 value,[1],2.90 ± 2.11 µg/mL
same,inhibition at 100 µg/mL,[1],33.8 ± 3.05%
same,binding to the human M3 receptor protein (verdict in words),[6]; 100 μg/ml,very weak binding
same,Tm value of the human M3 receptor protein,[6],64.92 ± 0.03 °C
same,concentration at 2 h,"[2]; urine, oral",6380 ± 897 ng/mL
same,concentration at 4 h,"[2]; urine, oral",10300 ± 2480 ng/mL
same,concentration at 6 h,"[2]; urine, oral",3310 ± 325 ng/mL
same,concentration at 8 h,"[2]; urine, oral",2210 ± 164 ng/mL
